Earlier results, collected in patent US4032635A, “Pharmaceutical method for the therapy of immune diseases” (Zaidan Hojin Biseibutsu Kagaku Kenkyu Kai, priority 1975, dated 1977).

Key:
histidine decarboxylase = details: cited from earlier work
[1] = tested on: antibody formation, anaphylaxis or contact dermatitis; details: in vivo; cited from earlier work
[2] = tested on: autoimmune diseases, some infection allergies and dermatological contact allergies, transplantation immunological responses; details: in vivo; cited from earlier work
[3] = tested on: experimental allergic encephalomyelitis (EAE); details: cited from earlier work
[4] = tested on: humoral and cell-mediated immunities; details: cited from earlier work
[5] = tested on: nucleic acid and/or protein synthesis; details: cited from earlier work
[6] = tested on: MS and related autoimmune diseases; details: long-term administration; cited from earlier work

In the case of `NNC(Cc1c[nH]cn1)C(=O)O` (centres unmarked) [2-hydrazino-3-(4-imidazolyl)-propionic acid], the “inhibition of histidine decarboxylase” value (histidine decarboxylase) is listed as “inhibitor of histidine decarboxylase” and the “inhibition of antibody formation, anaphylaxis or contact dermatitis” value [1] is listed as “inhibits antibody formation, anaphylaxis or contact dermatitis”.

For `CCOc1c(N)c2c(c(OCC)c1OCC)C(C1c3c(cc4c(c3OC)OCO4)CCN1C)OC2=O` (centres unmarked) [tritoqualine], the “inhibition of histidine decarboxylase” value (histidine decarboxylase) is given as “inhibitor of histidine decarboxylase” and the “inhibition of antibody formation, anaphylaxis or contact dermatitis” value [1] is given as “inhibits antibody formation, anaphylaxis or contact dermatitis”.

For `O=P1(N(CCCl)CCCl)NCCCO1` (centres unmarked) [cyclophosphamide], the “effectiveness in therapy of autoimmune diseases, allergies, transplantation responses” value [2] is listed as “effective in the therapy of autoimmune diseases, some infection allergies and dermatological contact allergies”, the “EAE after discontinuation of the drug (known agents)” value ([3]; after discontinuation and following a latent period) is listed as “the animals often develop paralytic EAE” and the “suppression of development of EAE (known agents)” value ([3]; at such high doses as would cause toxicity) is listed as “can suppress the development of EAE”. The “dose at which effective / cytotoxicity” value [4] was “effective in general only at near-lethal doses owing to their cytotoxicity”, the “inhibition of humoral and cell-mediated immunities” value [4] was “inhibit both humoral and cell-mediated immunities” and the “effect on nucleic acid and/or protein synthesis” value [5] was “disrupt nucleic acid and/or protein synthesis”.

For “ACTH: presently applied to patients with MS and related autoimmune diseases (SYSMEHFRWGKPVGKKRRPVKVYPNGAEDESAEAFPLEF; Corticotropin; UniProt P01189 138-176, looked up)”, the “effects in patients with MS” value [6] is given as “effects are limited due to serious side-effects caused by long-term administration of the drug”.
